In patent US7994204B2, “Binding inhibitor of sphingosine-1-phosphate” (Taisho Pharmaceutical Co., Ltd, priority 2006, dated 2011):

Assays:
human Edg-1 (S1P1) = biological target: T1, human Edg-1 (S1P1) (Homo sapiens, UniProt P21453); assay: S1P1 binding inhibition test (membrane, [33P]-S1P); conditions: for inhibition at 10 µM: compound 10 μM, [33P]-S1P 0.1 nM, human Edg-1 (S1P1) HEK-293 membrane fraction, read-out: Binding test (membrane) % inhibition (10 μM); for IC50: membrane system binding test, various concentrations
T1 construct: expressed in transfected cells; host or cells: HEK-293
Outline: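 Membranes from Edg-1 (S1P1)-expressing HEK-293 cells incubated 1 h at 30 °C in pH 7.4 Tris buffer with 0.1 nM [33P]-S1P and compound (10^−5 M, or various concentrations for IC50). Filter-bound radioactivity counted; background from non-transfected HEK-293 membranes; inhibition = [1−(A−C)/(B−C)]×100.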

T1 sequence (P21453 whole entry): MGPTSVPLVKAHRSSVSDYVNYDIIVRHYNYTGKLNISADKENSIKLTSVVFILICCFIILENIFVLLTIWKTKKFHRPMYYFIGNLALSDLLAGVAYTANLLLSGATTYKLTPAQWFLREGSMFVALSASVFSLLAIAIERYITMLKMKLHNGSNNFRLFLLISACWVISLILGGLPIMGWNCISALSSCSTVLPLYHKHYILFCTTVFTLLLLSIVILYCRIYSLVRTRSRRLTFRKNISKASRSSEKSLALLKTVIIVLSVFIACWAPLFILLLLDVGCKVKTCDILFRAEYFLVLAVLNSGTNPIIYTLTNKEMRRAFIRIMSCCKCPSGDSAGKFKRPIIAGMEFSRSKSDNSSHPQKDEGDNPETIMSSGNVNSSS

inhibition at 10 µM (human Edg-1 (S1P1)) [%]	IC50 (human Edg-1 (S1P1)) [nM]	melting point [°C]	Structure (SMILES)
102	≤ 70	167 to 168	CCn1c(C(C)NS(=O)(=O)c2ccc(Cl)c(Cl)c2)cnc1Oc1ccc(OCCN2CCOCC2)cc1 (centres unmarked) [Compound 214]
100		179 to 180	CCn1c(C(C)NS(=O)(=O)c2ccc(Cl)c(Cl)c2)cnc1Oc1cc(C)nc(C)c1 (centres unmarked) [Compound 215]
92		180 to 181	CCn1c(C(C)NS(=O)(=O)c2ccc(Cl)c(Cl)c2)cnc1OC1CCCCC1 (centres unmarked) [Compound 216]
96.3		146 to 148	CCn1c(C(C)NS(=O)(=O)c2ccc(Cl)c(Cl)c2)cnc1Oc1cc(C(F)(F)F)n(C)n1 (centres unmarked) [Compound 217]
101		102.5 to 107.5	CCn1c(C(C)NS(=O)(=O)c2ccc(Cl)c(Cl)c2)cnc1Oc1ccc(C)c(C)c1 (centres unmarked) [Compound 218]
83.2		195 to 196	CCOc1ncc(C(C)NS(=O)(=O)c2ccc(Cl)c(Cl)c2)n1CC (centres unmarked) [Compound 219]
68.3		79 to 80	CCCCCCC(NS(=O)(=O)c1ccc(Cl)c(Cl)c1)c1cnc(Oc2ccc(F)cc2)n1CC (centres unmarked) [Compound 220]
52.6		101 to 102	CCn1c(C(NS(=O)(=O)c2ccc(Cl)c(Cl)c2)C(C)C)cnc1Oc1ccc(F)cc1 (centres unmarked) [Compound 221]
87.6		178 to 180	CCn1c(C(C)NS(=O)(=O)c2ccc(Cl)c(Cl)c2)cnc1OC(C)C (centres unmarked) [Compound 222]
92.1		181 to 183	CCCOc1ncc(C(C)NS(=O)(=O)c2ccc(Cl)c(Cl)c2)n1CC (centres unmarked) [Compound 223]
87		133.5 to 134.5	CCn1c(C(C)NS(=O)(=O)c2ccc(Cl)c(Cl)c2)cnc1OCC(F)(F)F (centres unmarked) [Compound 224]
98.9		122 to 124	CCc1nc(Oc2ccc(F)cc2)n(CC)c1C(C)NS(=O)(=O)c1ccc(Cl)c(Cl)c1 (centres unmarked) [Compound 225]
91.5		172.5 to 173.5	C#CCCCOc1ncc(C(C)NS(=O)(=O)c2ccc(Cl)c(Cl)c2)n1CC (centres unmarked) [Compound 226]
96		160.5 to 162.5	CCn1c(C(C)NS(=O)(=O)c2ccc(Cl)c(Cl)c2)cnc1OCCCN1CCOCC1 (centres unmarked) [Compound 228]
99	≤ 70	106 to 107	CCn1c(C(C)NS(=O)(=O)c2ccc(Cl)c(Cl)c2)cnc1Oc1ccc(OCCN(C)C)cc1 (centres unmarked) [Compound 229]
90.7		102 to 103	CCn1c(C(C)NS(=O)(=O)c2ccc(Cl)c(Cl)c2)cnc1OCc1ccccc1 (centres unmarked) [Compound 230]
97.4		162 to 163	CCn1c(C(C)NS(=O)(=O)c2ccc(Cl)c(Cl)c2)cnc1OC1CCC1 (centres unmarked) [Compound 231]
92.3		128.5 to 129.5	CCn1c(Oc2ccc(F)cc2)nc(Br)c1C(C)NS(=O)(=O)c1ccc(Cl)c(Cl)c1 (centres unmarked) [Compound 232]
94	58.5	137.5 to 142.5	CCn1c(C(C)NS(=O)(=O)c2ccc(Cl)c(Cl)c2)cnc1OCCCCCCN(C)C (centres unmarked) [Compound 235]
96.8	≤ 70	213.5 to 215.5	CCn1c(C(C)NS(=O)(=O)c2ccc(Cl)c(Cl)c2)cnc1Oc1cccc(NC(C)=O)c1 (centres unmarked) [Compound 236]
93.1		152.5	C=CCCCOc1ncc(C(C)NS(=O)(=O)c2ccc(Cl)c(Cl)c2)n1CC (centres unmarked) [Compound 237]
95.9		151.5 to 152.5	CCn1c(C(C)NS(=O)(=O)c2ccc(Cl)c(Cl)c2)cnc1OCCCOC (centres unmarked) [Compound 239]
94.5		175 to 177	CCn1c(C(C)NS(=O)(=O)c2ccc3cc(C)ccc3c2)cnc1Oc1cccc(N2CCN(C)CC2)c1 (centres unmarked) [Compound 242]
97.4		135 to 136	CCn1c(C(C)NS(=O)(=O)c2ccc3ccc(Cl)cc3c2)cnc1Oc1cccc(N2CCN(C)CC2)c1 (centres unmarked) [Compound 243]
98.3	32.5	160 to 162	CCn1c(C(C)NS(=O)(=O)c2ccc3c(c2)CCC3)cnc1Oc1cccc(N2CCN(C)CC2)c1 (centres unmarked) [Compound 244]
98.9		141 to 143	CCn1c(C(C)NS(=O)(=O)/C=C/c2ccccc2)cnc1Oc1cccc(N2CCN(C)CC2)c1 (centres unmarked) [Compound 245]
101	≤ 15	220 to 223	CCn1c(C(C)NS(=O)(=O)c2ccc3c(Cl)ccc(Cl)c3c2)cnc1Oc1cccc(N2CCN(C)CC2)c1 (centres unmarked) [Compound 246]
99.9	≤ 15	196 to 198	CCn1c(C(C)NS(=O)(=O)c2ccc3cccc(Cl)c3c2)cnc1Oc1cccc(N2CCN(C)CC2)c1 (centres unmarked) [Compound 247]
52.5		180 to 183	CCn1c(C(C)NS(=O)(=O)c2ccc(Cl)c(Cl)c2)cnc1S(=O)(=O)c1ccc(C)cc1 (centres unmarked) [Compound 252, 3,4-Dichloro-N-{1-[3-ethyl-2-(toluene-4-sulfonyl)-3H-imidazol-4-yl]-ethyl}-benzenesulfonamide]
